The values that follow come from PubChem BioAssay AID1259407 (Chemical Carcinogenesis Research Information System (CCRIS), 2018).

This data set has as its system CCRIS mutagenicity, Ames/micronucleus/aberration tests. The data set is described as follows: CCRIS mutagenicity studies.
[1] abbreviates: Test System: AMES SALMONELLA TYPHIMURIUM, Strain/Indicator: TA100, Metabolic Activation: NONE, Method: PREINCUBATION
[2] abbreviates: Test System: AMES SALMONELLA TYPHIMURIUM, Strain/Indicator: TA98, Metabolic Activation: NONE, Method: STANDARD PLATE.
The mark [3] stands for this setting: Test System: AMES SALMONELLA TYPHIMURIUM, Strain/Indicator: TA100, Metabolic Activation: NONE, Method: STANDARD PLATE.

Active and inactive are the calls of the source. No rule for the calls is given here.

`CCCCCCCCCCCCCCC1CO1` (stereo not drawn): the mutagenic call (Test System: AMES SALMONELLA TYPHIMURIUM, Strain/Indicator: TA98, Metabolic Activation: HAMSTER, LIVER, S-9, AROCLOR 1254 (10%), Method: PREINCUBATION) was “inactive; negative”; the mutagenic call (Test System: AMES SALMONELLA TYPHIMURIUM, Strain/Indicator: TA98, Metabolic Activation: NONE, Method: PREINCUBATION) is “inactive; negative”; the mutagenic call (Test System: AMES SALMONELLA TYPHIMURIUM, Strain/Indicator: TA98, Metabolic Activation: RAT, LIVER, S-9, AROCLOR 1254 (10%), Method: PREINCUBATION) was “inactive; negative”; the mutagenic call (Test System: AMES SALMONELLA TYPHIMURIUM, Strain/Indicator: TA100, Metabolic Activation: HAMSTER, LIVER, S-9, AROCLOR 1254 (10%), Method: PREINCUBATION) is “inactive; negative”; the mutagenic call under setting [1] is “inactive; negative”; the mutagenic call (Test System: AMES SALMONELLA TYPHIMURIUM, Strain/Indicator: TA100, Metabolic Activation: RAT, LIVER, S-9, AROCLOR 1254 (10%), Method: PREINCUBATION) is “inactive; negative”. Moreover, the mutagenic call reads like this: (Test System: AMES SALMONELLA TYPHIMURIUM, Strain/Indicator: TA1535, Metabolic Activation: HAMSTER, LIVER, S-9, AROCLOR 1254 (10%), Method: PREINCUBATION) “inactive; negative”; (Test System: AMES SALMONELLA TYPHIMURIUM, Strain/Indicator: TA1535, Metabolic Activation: NONE, Method: PREINCUBATION) “inactive; negative”; (Test System: AMES SALMONELLA TYPHIMURIUM, Strain/Indicator: TA1535, Metabolic Activation: RAT, LIVER, S-9, AROCLOR 1254 (10%), Method: PREINCUBATION) “inactive; negative”; (Test System: AMES SALMONELLA TYPHIMURIUM, Strain/Indicator: TA1537, Metabolic Activation: HAMSTER, LIVER, S-9, AROCLOR 1254 (10%), Method: PREINCUBATION) “inactive; negative”; (Test System: AMES SALMONELLA TYPHIMURIUM, Strain/Indicator: TA1537, Metabolic Activation: NONE, Method: PREINCUBATION) “inactive; negative”; (Test System: AMES SALMONELLA TYPHIMURIUM, Strain/Indicator: TA1537, Metabolic Activation: RAT, LIVER, S-9, AROCLOR 1254 (10%), Method: PREINCUBATION) “inactive; negative”.
As to `BrCc1c2ccccc2cc2c1ccc1ccccc12`, the mutagenic call runs as follows: under setting [2], “active; positive”; under setting [3], “active; positive”; (Test System: CHINESE HAMSTER V-79, Strain/Indicator: V-79/8-AZAGUANINE, Metabolic Activation: NONE, Method: STANDARD PLATE) “active; positive”; (Test System: E. COLI, Strain/Indicator: WP2, Metabolic Activation: NONE, Method: FLUCTUATION) “active; positive”; (Test System: E. COLI, Strain/Indicator: WP2 UVRA, Metabolic Activation: NONE, Method: FLUCTUATION) “active; positive”; (Test System: UDS HUMAN CELLS, Strain/Indicator: THY INCORP (NON-S-PHASE), Metabolic Activation: NONE, Method: LIQUID SCINTILLATION COUNTING) “active; positive”. In addition, the mutagenic call runs as follows: (Test System: UDS HUMAN FIBROBLASTS, Strain/Indicator: THY INCORP (NON-S-PHASE), Metabolic Activation: NONE, Method: AUTORADIOGRAPHY) “active; positive”; (Test System: UDS RODENT CELLS, Strain/Indicator: THY INCORP (NON-S-PHASE), Metabolic Activation: NONE, Method: LIQUID SCINTILLATION COUNTING) “active; positive”.
With `CC1(C)CC(C(=O)NC(CO)C(O)CO)C(C)(C)N1[O]` (stereo not drawn), the mutagenic call was “inactive; negative” (Test System: AMES SALMONELLA TYPHIMURIUM, Strain/Indicator: TA102, Metabolic Activation: NONE, Method: STANDARD PLATE); “inactive; negative” (Test System: AMES SALMONELLA TYPHIMURIUM, Strain/Indicator: TA102, Metabolic Activation: XANTHINE OXIDASE, Method: STANDARD PLATE); “inactive; negative” (Test System: AMES SALMONELLA TYPHIMURIUM, Strain/Indicator: TA104, Metabolic Activation: NONE, Method: STANDARD PLATE); “inactive; negative” (Test System: AMES SALMONELLA TYPHIMURIUM, Strain/Indicator: TA104, Metabolic Activation: XANTHINE OXIDASE, Method: STANDARD PLATE); “inactive; negative” (Test System: CHO, Strain/Indicator: CHO/6-THIOGUANINE, Metabolic Activation: NONE, Method: STANDARD PLATE); “inactive; negative” (Test System: CHO, Strain/Indicator: CHO/6-THIOGUANINE, Metabolic Activation: RAT, LIVER, S-9, AROCLOR 1254, Method: STANDARD PLATE). Besides, the mutagenic call (Test System: CHO, Strain/Indicator: CHO/OUABAIN, Metabolic Activation: NONE, Method: STANDARD PLATE) was “inactive; negative” and the mutagenic call (Test System: CHO, Strain/Indicator: CHO/OUABAIN, Metabolic Activation: RAT, LIVER, S-9, AROCLOR 1254, Method: STANDARD PLATE) is “inactive; negative”.
Consider `CSCCC(NC(=O)COc1cc(Cl)c(Cl)cc1Cl)C(=O)O` (stereo not drawn), for which the mutagenic call (Test System: AMES SALMONELLA TYPHIMURIUM, Strain/Indicator: TA97, Metabolic Activation: NONE, Method: STANDARD PLATE) is “inactive; negative”; the mutagenic call (Test System: AMES SALMONELLA TYPHIMURIUM, Strain/Indicator: TA97, Metabolic Activation: RAT, LIVER, S-9, AROCLOR 1254, Method: STANDARD PLATE) was “inactive; negative”; the mutagenic call under setting [2] is “inactive; negative”; the mutagenic call (Test System: AMES SALMONELLA TYPHIMURIUM, Strain/Indicator: TA98, Metabolic Activation: RAT, LIVER, S-9, AROCLOR 1254, Method: STANDARD PLATE) is “inactive; negative”; the mutagenic call under setting [3] is “inactive; negative”; the mutagenic call (Test System: AMES SALMONELLA TYPHIMURIUM, Strain/Indicator: TA100, Metabolic Activation: RAT, LIVER, S-9, AROCLOR 1254, Method: STANDARD PLATE) is “inactive; negative”. Further, the mutagenic call was “inactive; negative” (Test System: AMES SALMONELLA TYPHIMURIUM, Strain/Indicator: TA1535, Metabolic Activation: NONE, Method: STANDARD PLATE); “inactive; negative” (Test System: AMES SALMONELLA TYPHIMURIUM, Strain/Indicator: TA1535, Metabolic Activation: RAT, LIVER, S-9, AROCLOR 1254, Method: STANDARD PLATE); “inactive; negative” (Test System: AMES SALMONELLA TYPHIMURIUM, Strain/Indicator: TA1538, Metabolic Activation: NONE, Method: STANDARD PLATE); “inactive; negative” (Test System: AMES SALMONELLA TYPHIMURIUM, Strain/Indicator: TA1538, Metabolic Activation: RAT, LIVER, S-9, AROCLOR 1254, Method: STANDARD PLATE).
For the compound `COC1=CC(=O)C=CC1=Nc1c2ccccc2nc2ccccc12`, where the note is “Test System: AMES SALMONELLA TYPHIMURIUM, Strain/Indicator: TA1537, Metabolic Activation: NONE, Method: STANDARD PLATE”, the mutagenic call was “inactive; negative”.
On to `C=C(Br)C=O`, for which the mutagenic call (Test System: AMES SALMONELLA TYPHIMURIUM, Strain/Indicator: TA100, Metabolic Activation: NONE, Method: LIQUID INCUBATION) was “active; positive”; the mutagenic call under setting [1] was “active; positive”; the mutagenic call (Test System: AMES SALMONELLA TYPHIMURIUM, Strain/Indicator: TA100, Metabolic Activation: NONE, Method: PREINCUBATION, LIQUID INCUBATION) is “active; positive”; the mutagenic call under setting [3] is “active; positive”; the mutagenic call (Test System: AMES SALMONELLA TYPHIMURIUM, Strain/Indicator: TA100, Metabolic Activation: RAT, LIVER, MICROSOMES, Method: PREINCUBATION) is “active; positive”; the mutagenic call (Test System: AMES SALMONELLA TYPHIMURIUM, Strain/Indicator: TA104, Metabolic Activation: NONE, Method: PREINCUBATION) was “active; positive”. The mutagenic call is, setting by setting: (Test System: AMES SALMONELLA TYPHIMURIUM, Strain/Indicator: TA1535, Metabolic Activation: NONE, Method: LIQUID INCUBATION) “active; positive”; (Test System: AMES SALMONELLA TYPHIMURIUM, Strain/Indicator: TA1535, Metabolic Activation: NONE, Method: PREINCUBATION, LIQUID INCUBATION) “active; positive”; (Test System: UDS RAT HEPATOCYTES, Strain/Indicator: THY INCORP, Metabolic Activation: NONE) “inactive; negative”.
